US20070010671A1, “Novel quinazoline derivatives and methods of treatment related to the use thereof” (priority 2003, published 2007)

biological target: MCH receptor (Homo sapiens, UniProt Q99705); assay: High throughput functional screening FLIPR/FDSS6000: inhibition of MCH-evoked intracellular Ca2+ changes; assay type: cell-based; settings: class by percent of control at 10^-7 M or IC50
Procedure, shortened: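 Cells expressing constitutively active MCH receptor, loaded with 4 μM Fluo4-AM for 1 h at 37 °C, were pretreated 3 min with compound, then challenged with MCH (50 nM for antagonist testing). MCH-evoked [Ca2+]i transients followed by FLIPR or FDSS (ex 488/em 530 nm) over 290 s.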

| SMILES | class |
| --- | --- |
| CN(C)c1nc(N[C@H]2CC[C@@H](CNC(=O)NC3CCCC3)CC2)nc2ccccc12 [compound 572, N-cyclopentyl-N′-[(cis-4-{[4-(dimethylamino)quinazolin-2-yl]amino}cyclohexyl)methyl]urea] | 2 (Class 2: The value of percent of control at 10^−7 M was from 40% to 60% or the value of IC50 was from 50 nM to 200 nM.) |
| CN(C)c1nc(N[C@H]2CC[C@@H](CNC(=O)NC(c3ccccc3)c3ccccc3)CC2)nc2ccccc12 [compound 573, N-[(cis-4-{[4-(dimethylamino)quinazolin-2-yl]amino}cyclohexyl)methyl]-N′-(diphenylmethyl)urea] | 1 (Class 1: The value of percent of control at 10^−7 M was less than 40% or the value of IC50 was less than 50 nM.) |
| COC(=O)c1ccc(NC(=O)NC[C@H]2CC[C@@H](Nc3nc(N(C)C)c4ccccc4n3)CC2)cc1 [compound 574] | 3 (Class 3: The value of percent of control at 10^−7 M was more than 60% or the value of IC50 was more than 200 nM.) |
| CN(C)c1nc(N[C@H]2CC[C@@H](CNC(=O)Nc3ccccc3OC(F)(F)F)CC2)nc2ccccc12 [compound 576] | 3 (Class 3: The value of percent of control at 10^−7 M was more than 60% or the value of IC50 was more than 200 nM.) |
| CC(=O)c1cccc(NC(=S)NC[C@H]2CC[C@@H](Nc3nc(N(C)C)c4ccccc4n3)CC2)c1 [compound 577] | 3 (Class 3: The value of percent of control at 10^−7 M was more than 60% or the value of IC50 was more than 200 nM.) |
| CC(=O)c1ccc(NC(=S)NC[C@H]2CC[C@@H](Nc3nc(N(C)C)c4ccccc4n3)CC2)cc1 [compound 578] | 3 (Class 3: The value of percent of control at 10^−7 M was more than 60% or the value of IC50 was more than 200 nM.) |
| CN(C)c1nc(N[C@H]2CC[C@@H](CNC(=S)Nc3cc(C(F)(F)F)cc(C(F)(F)F)c3)CC2)nc2ccccc12 [compound 579] | 3 (Class 3: The value of percent of control at 10^−7 M was more than 60% or the value of IC50 was more than 200 nM.) |
| CN(C)c1nc(N[C@H]2CC[C@@H](CNC(=S)NCc3ccccc3)CC2)nc2ccccc12 [compound 580] | 3 (Class 3: The value of percent of control at 10^−7 M was more than 60% or the value of IC50 was more than 200 nM.) |
| CN(C)c1nc(N[C@H]2CC[C@@H](CNC(=S)Nc3cccc(Br)c3)CC2)nc2ccccc12 [compound 581] | 3 (Class 3: The value of percent of control at 10^−7 M was more than 60% or the value of IC50 was more than 200 nM.) |
| CN(C)c1nc(N[C@H]2CC[C@@H](CNC(=S)Nc3ccc(Br)cc3)CC2)nc2ccccc12 [compound 582] | 3 (Class 3: The value of percent of control at 10^−7 M was more than 60% or the value of IC50 was more than 200 nM.) |
| CCCCNC(=S)NC[C@H]1CC[C@@H](Nc2nc(N(C)C)c3ccccc3n2)CC1 [compound 583] | 3 (Class 3: The value of percent of control at 10^−7 M was more than 60% or the value of IC50 was more than 200 nM.) |
| CN(C)c1nc(N[C@H]2CC[C@@H](CNC(=S)Nc3ccc(C#N)cc3)CC2)nc2ccccc12 [compound 584] | 3 (Class 3: The value of percent of control at 10^−7 M was more than 60% or the value of IC50 was more than 200 nM.) |
| CN(C)c1nc(N[C@H]2CC[C@@H](CNC(=S)NC3CCCCC3)CC2)nc2ccccc12 [compound 585] | 3 (Class 3: The value of percent of control at 10^−7 M was more than 60% or the value of IC50 was more than 200 nM.) |
| CN(C)c1nc(N[C@H]2CC[C@@H](CNC(=S)NC3CCCC3)CC2)nc2ccccc12 [compound 586] | 3 (Class 3: The value of percent of control at 10^−7 M was more than 60% or the value of IC50 was more than 200 nM.) |
| CN(C)c1nc(N[C@H]2CC[C@@H](CNC(=S)Nc3cccc(Cl)c3)CC2)nc2ccccc12 [compound 587] | 3 (Class 3: The value of percent of control at 10^−7 M was more than 60% or the value of IC50 was more than 200 nM.) |
| CN(C)c1nc(N[C@H]2CC[C@@H](CNC(=S)Nc3ccc(Cl)cc3)CC2)nc2ccccc12 [compound 588] | 3 (Class 3: The value of percent of control at 10^−7 M was more than 60% or the value of IC50 was more than 200 nM.) |
| CN(C)c1nc(N[C@H]2CC[C@@H](CNC(=S)Nc3ccc(Cl)cc3Cl)CC2)nc2ccccc12 [compound 589] | 3 (Class 3: The value of percent of control at 10^−7 M was more than 60% or the value of IC50 was more than 200 nM.) |
| COc1ccc(NC(=S)NC[C@H]2CC[C@@H](Nc3nc(N(C)C)c4ccccc4n3)CC2)c(OC)c1 [compound 590] | 3 (Class 3: The value of percent of control at 10^−7 M was more than 60% or the value of IC50 was more than 200 nM.) |
| CN(C)c1nc(N[C@H]2CC[C@@H](CNC(=S)Nc3cc(F)ccc3F)CC2)nc2ccccc12 [compound 591] | 3 (Class 3: The value of percent of control at 10^−7 M was more than 60% or the value of IC50 was more than 200 nM.) |
| CN(C)c1nc(N[C@H]2CC[C@@H](CNC(=S)Nc3cc(Cl)ccc3Cl)CC2)nc2ccccc12 [compound 592] | 3 (Class 3: The value of percent of control at 10^−7 M was more than 60% or the value of IC50 was more than 200 nM.) |

| SMILES | class |
| --- | --- |
| Cc1cccc(C)c1NC(=S)NC[C@H]1CC[C@@H](Nc2nc(N(C)C)c3ccccc3n2)CC1 [compound 593, N-[(cis-4-{[4-(dimethylamino)quinazolin-2-yl]amino}cyclohexyl)methyl]-N′-(2,6-dimethylphenyl)thiourea] | 2 (Class 2: The value of percent of control at 10^−7 M was from 40% to 60% or the value of IC50 was from 50 nM to 200 nM.) |
| CN(C)c1nc(N[C@H]2CC[C@@H](CNC(=S)Nc3ccc(Cl)c(Cl)c3)CC2)nc2ccccc12 [compound 594] | 3 (Class 3: The value of percent of control at 10^−7 M was more than 60% or the value of IC50 was more than 200 nM.) |
| CN(C)c1nc(N[C@H]2CC[C@@H](CNC(=S)Nc3c(Cl)cccc3Cl)CC2)nc2ccccc12 [compound 595] | 2 (Class 2: The value of percent of control at 10^−7 M was from 40% to 60% or the value of IC50 was from 50 nM to 200 nM.) |
| CCOc1ccc(NC(=S)NC[C@H]2CC[C@@H](Nc3nc(N(C)C)c4ccccc4n3)CC2)cc1 [compound 596] | 3 (Class 3: The value of percent of control at 10^−7 M was more than 60% or the value of IC50 was more than 200 nM.) |
| CCc1cccc(C(C)C)c1NC(=S)NC[C@H]1CC[C@@H](Nc2nc(N(C)C)c3ccccc3n2)CC1 [compound 597] | 2 (Class 2: The value of percent of control at 10^−7 M was from 40% to 60% or the value of IC50 was from 50 nM to 200 nM.) |
| CN(C)c1nc(N[C@H]2CC[C@@H](CNC(=S)NCc3ccco3)CC2)nc2ccccc12 [compound 598] | 3 (Class 3: The value of percent of control at 10^−7 M was more than 60% or the value of IC50 was more than 200 nM.) |
| CN(C)c1nc(N[C@H]2CC[C@@H](CNC(=S)Nc3ccc(F)cc3)CC2)nc2ccccc12 [compound 599] | 3 (Class 3: The value of percent of control at 10^−7 M was more than 60% or the value of IC50 was more than 200 nM.) |
| CCCCCCNC(=S)NC[C@H]1CC[C@@H](Nc2nc(N(C)C)c3ccccc3n2)CC1 [compound 600] | 3 (Class 3: The value of percent of control at 10^−7 M was more than 60% or the value of IC50 was more than 200 nM.) |
| CCC[C@H]1CC[C@H](c2ccc(NC(=S)NC[C@H]3CC[C@@H](Nc4nc(N(C)C)c5ccccc5n4)CC3)cc2)CC1 [compound 601] | 3 (Class 3: The value of percent of control at 10^−7 M was more than 60% or the value of IC50 was more than 200 nM.) |
| CC(C)CNC(=S)NC[C@H]1CC[C@@H](Nc2nc(N(C)C)c3ccccc3n2)CC1 [compound 602, N-[(cis-4-{[4-(dimethylamino)quinazolin-2-yl]amino}cyclohexyl)methyl]-N′-isobutylthiourea] | 2 (Class 2: The value of percent of control at 10^−7 M was from 40% to 60% or the value of IC50 was from 50 nM to 200 nM.) |
| COc1ccc(-c2ccccc2)cc1NC(=S)NC[C@H]1CC[C@@H](Nc2nc(N(C)C)c3ccccc3n2)CC1 [compound 603] | 3 (Class 3: The value of percent of control at 10^−7 M was more than 60% or the value of IC50 was more than 200 nM.) |
| CN(C)c1nc(N[C@H]2CC[C@@H](CNC(=S)NCc3ccc4c(c3)OCO4)CC2)nc2ccccc12 [compound 604] | 2 (Class 2: The value of percent of control at 10^−7 M was from 40% to 60% or the value of IC50 was from 50 nM to 200 nM.) |
| Cc1cccc(NC(=S)NC[C@H]2CC[C@@H](Nc3nc(N(C)C)c4ccccc4n3)CC2)c1 [compound 605] | 3 (Class 3: The value of percent of control at 10^−7 M was more than 60% or the value of IC50 was more than 200 nM.) |
| CSc1ccc(NC(=S)NC[C@H]2CC[C@@H](Nc3nc(N(C)C)c4ccccc4n3)CC2)cc1 [compound 606] | 3 (Class 3: The value of percent of control at 10^−7 M was more than 60% or the value of IC50 was more than 200 nM.) |
| COc1ccc(NC(=S)NC[C@H]2CC[C@@H](Nc3nc(N(C)C)c4ccccc4n3)CC2)cc1 [compound 607] | 3 (Class 3: The value of percent of control at 10^−7 M was more than 60% or the value of IC50 was more than 200 nM.) |
| C=C(C)CNC(=S)NC[C@H]1CC[C@@H](Nc2nc(N(C)C)c3ccccc3n2)CC1 [compound 608] | 3 (Class 3: The value of percent of control at 10^−7 M was more than 60% or the value of IC50 was more than 200 nM.) |
| COc1ccccc1NC(=S)NC[C@H]1CC[C@@H](Nc2nc(N(C)C)c3ccccc3n2)CC1 [compound 609] | 3 (Class 3: The value of percent of control at 10^−7 M was more than 60% or the value of IC50 was more than 200 nM.) |
| CNC(=S)NC[C@H]1CC[C@@H](Nc2nc(N(C)C)c3ccccc3n2)CC1 [compound 610] | 3 (Class 3: The value of percent of control at 10^−7 M was more than 60% or the value of IC50 was more than 200 nM.) |
| CN(C)c1nc(N[C@H]2CC[C@@H](CNC(=S)Nc3cccc4ccccc34)CC2)nc2ccccc12 [compound 611] | 3 (Class 3: The value of percent of control at 10^−7 M was more than 60% or the value of IC50 was more than 200 nM.) |
